Measurements published in US11912703B2, “6-azaindole compounds” (BRISTOL-MYERS SQUIBB COMPANY, priority 2017, dated 2024).
Like-named read-outs stand apart in the source and are kept apart here.

Assays:
human TLR9 = human TLR9 (Homo sapiens (Human), UniProt Q9NR96); test: TLR9 inhibition reporter assay (HEK-Blue SEAP);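 note: SEAP driven by IFN-β minimal promoter carrying five NF-κB and AP-1 sites, 22 h at 37 °C, compounds 0.05 nM–50 µM, inhibition scaled between agonist-plus-DMSO and reference-inhibitor wells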
human TLR7 = human TLR7 (Homo sapiens (Human), UniProt Q9NYK1); test: TLR7 inhibition reporter assay (HEK-Blue SEAP); type: cell-based; details: HEK-Blue cells overexpressing human TLR7, gardiquimod 7.5 μM stimulation
human TLR8 = human TLR8 (Homo sapiens (Human), UniProt Q9NR97); test: TLR8 inhibition reporter assay (HEK-Blue SEAP);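 note: SEAP driven by IFN-β minimal promoter with five NF-κB and AP-1 sites, compounds tested 0.05 nM to 50 µM, 22 h incubation, inhibition relative to agonist plus DMSO wells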
[1] = read-out: TLR9 IC50; HEK-Blue cells overexpressing human TLR9, ODN2006 5 nM stimulation, SEAP reporter
[2] = read-out: TLR8 IC50; HEK-Blue cells overexpressing human TLR8, R848 15.9 μM stimulation, SEAP reporter
[3] = read-out: TLR9 IC50; HEK-Blue cells overexpressing human TLR9; ODN2006 5 nM stimulation; SEAP reporter
[4] = read-out: TLR8 IC50; HEK-Blue cells overexpressing human TLR8; R848 15.9 μM stimulation; SEAP reporter

Sequence of human TLR9 (Q9NR96 26-1032): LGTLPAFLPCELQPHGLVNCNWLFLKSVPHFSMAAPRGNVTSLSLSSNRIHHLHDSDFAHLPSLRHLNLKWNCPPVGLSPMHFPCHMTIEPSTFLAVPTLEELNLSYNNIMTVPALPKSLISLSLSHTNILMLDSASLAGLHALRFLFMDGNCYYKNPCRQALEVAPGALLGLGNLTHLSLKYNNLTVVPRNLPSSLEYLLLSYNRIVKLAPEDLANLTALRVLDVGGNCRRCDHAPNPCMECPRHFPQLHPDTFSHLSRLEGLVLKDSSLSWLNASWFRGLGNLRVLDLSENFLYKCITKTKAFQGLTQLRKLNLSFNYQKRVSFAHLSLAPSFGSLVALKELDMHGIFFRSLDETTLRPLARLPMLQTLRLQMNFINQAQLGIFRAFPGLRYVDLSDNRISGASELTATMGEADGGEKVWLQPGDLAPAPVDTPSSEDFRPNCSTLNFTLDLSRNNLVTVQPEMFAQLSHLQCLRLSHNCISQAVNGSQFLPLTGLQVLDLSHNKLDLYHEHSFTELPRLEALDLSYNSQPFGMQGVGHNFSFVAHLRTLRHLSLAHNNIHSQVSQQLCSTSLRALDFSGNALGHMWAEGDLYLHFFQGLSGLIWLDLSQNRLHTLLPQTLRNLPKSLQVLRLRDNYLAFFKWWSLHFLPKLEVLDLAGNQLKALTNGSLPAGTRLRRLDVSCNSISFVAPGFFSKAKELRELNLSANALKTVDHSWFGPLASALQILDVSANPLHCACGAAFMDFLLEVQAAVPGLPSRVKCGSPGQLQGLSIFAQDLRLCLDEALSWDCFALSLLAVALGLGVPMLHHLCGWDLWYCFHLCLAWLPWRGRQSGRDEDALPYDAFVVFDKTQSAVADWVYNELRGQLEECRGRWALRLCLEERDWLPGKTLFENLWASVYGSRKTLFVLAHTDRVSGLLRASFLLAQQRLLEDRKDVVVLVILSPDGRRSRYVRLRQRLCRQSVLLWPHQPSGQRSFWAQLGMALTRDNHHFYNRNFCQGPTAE
Sequence of human TLR7 (Q9NYK1 27-1049): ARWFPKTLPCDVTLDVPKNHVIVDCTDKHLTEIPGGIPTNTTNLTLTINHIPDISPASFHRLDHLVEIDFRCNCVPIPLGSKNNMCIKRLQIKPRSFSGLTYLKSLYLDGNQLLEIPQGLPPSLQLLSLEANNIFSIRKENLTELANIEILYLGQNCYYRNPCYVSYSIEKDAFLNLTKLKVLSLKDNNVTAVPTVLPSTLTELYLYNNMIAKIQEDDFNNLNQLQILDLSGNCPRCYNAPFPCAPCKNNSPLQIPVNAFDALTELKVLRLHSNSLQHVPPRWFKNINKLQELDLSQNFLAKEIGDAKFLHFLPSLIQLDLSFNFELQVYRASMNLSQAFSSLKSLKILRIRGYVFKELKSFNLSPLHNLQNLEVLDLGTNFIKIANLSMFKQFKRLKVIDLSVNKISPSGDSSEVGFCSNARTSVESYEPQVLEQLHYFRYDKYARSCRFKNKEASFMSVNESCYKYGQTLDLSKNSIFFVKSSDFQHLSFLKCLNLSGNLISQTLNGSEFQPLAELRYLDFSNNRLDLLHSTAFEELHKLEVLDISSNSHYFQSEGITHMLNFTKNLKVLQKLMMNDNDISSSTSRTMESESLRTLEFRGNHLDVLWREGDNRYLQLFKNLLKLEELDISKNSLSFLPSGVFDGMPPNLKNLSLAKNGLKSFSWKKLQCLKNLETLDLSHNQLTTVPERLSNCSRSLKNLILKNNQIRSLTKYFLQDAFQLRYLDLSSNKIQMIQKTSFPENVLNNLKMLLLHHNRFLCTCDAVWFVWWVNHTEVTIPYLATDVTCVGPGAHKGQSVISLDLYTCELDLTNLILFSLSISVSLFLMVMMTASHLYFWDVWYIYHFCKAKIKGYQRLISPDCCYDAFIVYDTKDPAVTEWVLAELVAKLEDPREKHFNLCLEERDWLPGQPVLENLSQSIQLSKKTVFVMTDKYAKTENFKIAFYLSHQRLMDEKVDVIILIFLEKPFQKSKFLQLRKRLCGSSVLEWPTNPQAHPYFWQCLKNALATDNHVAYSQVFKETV
Sequence of human TLR8 (Q9NR97 27-1041): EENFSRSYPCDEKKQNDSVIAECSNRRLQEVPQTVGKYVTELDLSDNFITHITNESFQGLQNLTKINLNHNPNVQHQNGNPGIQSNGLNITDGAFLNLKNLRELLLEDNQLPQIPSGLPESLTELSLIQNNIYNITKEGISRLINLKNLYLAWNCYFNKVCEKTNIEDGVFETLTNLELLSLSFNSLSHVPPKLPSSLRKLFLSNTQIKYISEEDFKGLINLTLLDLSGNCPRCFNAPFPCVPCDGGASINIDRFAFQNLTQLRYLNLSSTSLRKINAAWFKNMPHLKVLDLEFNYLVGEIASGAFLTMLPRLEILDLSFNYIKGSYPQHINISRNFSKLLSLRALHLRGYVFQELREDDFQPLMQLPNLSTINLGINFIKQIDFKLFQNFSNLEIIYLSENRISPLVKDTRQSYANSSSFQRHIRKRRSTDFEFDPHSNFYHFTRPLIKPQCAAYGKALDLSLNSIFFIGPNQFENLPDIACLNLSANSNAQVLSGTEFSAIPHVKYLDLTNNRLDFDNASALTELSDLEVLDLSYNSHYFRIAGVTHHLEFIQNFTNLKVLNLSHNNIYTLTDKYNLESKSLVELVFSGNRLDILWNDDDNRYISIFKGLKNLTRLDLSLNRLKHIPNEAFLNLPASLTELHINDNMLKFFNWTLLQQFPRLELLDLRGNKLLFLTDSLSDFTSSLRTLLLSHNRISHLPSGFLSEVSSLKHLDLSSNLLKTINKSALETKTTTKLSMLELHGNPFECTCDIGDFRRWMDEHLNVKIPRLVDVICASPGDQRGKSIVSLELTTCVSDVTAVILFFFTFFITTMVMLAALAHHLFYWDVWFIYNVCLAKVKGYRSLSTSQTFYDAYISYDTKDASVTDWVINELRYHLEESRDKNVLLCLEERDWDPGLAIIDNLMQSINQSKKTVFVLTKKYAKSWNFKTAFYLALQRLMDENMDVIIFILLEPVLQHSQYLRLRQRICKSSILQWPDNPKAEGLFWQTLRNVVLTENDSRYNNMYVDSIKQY

Row | Compound | IC50 (human TLR9; [1]) [nM] | IC50 (human TLR7) [nM] | IC50 (human TLR8; [2]) [nM] | IC50 (human TLR9) [nM] | IC50 (human TLR8) [nM] | IC50 (human TLR9; [3]) [nM] | IC50 (human TLR8; [4]) [nM]
1 | Cc1c(-c2[nH]c3cnc(N4CCN(CC(=O)N(C)C)CC4)c(F)c3c2C(C)C)cn2ncnc2c1C [Example 428] | 39500 | 12 | 1.1 |  |  |  | 
2 | CCN(C)C1CCC(c2ncc3[nH]c(-c4cc(C)c5ncnn5c4)c(C(C)C)c3c2F)CC1 (stereo not drawn) [Example 163] | 1320 | 0.39 | 0.87 |  |  |  | 
3 | COc1cc(-c2[nH]c3cnc(C4CCC(NC5COC5)C4)cc3c2C(C)C)cn2ncnc12 (stereo not drawn) [Example 93] | 2830 | 18 | 37 |  |  |  | 
4 | Cc1cc(-c2[nH]c3cnc(C4CCN(CC5(C)COC5)CC4)c(F)c3c2C(C)C)cn2ncnc12 [Example 250] | 4770 | 3.2 | 3.4 |  |  |  | 
5 | COc1cc(-c2[nH]c3cnc(N4CCN(CC(=O)N(C)C)CC4)c(Cl)c3c2C(C)C)cn2ncnc12 [Example 305] | 2830 | 2.5 | 1.4 |  |  |  | 
6 | CCCN1CCN(c2ncc3[nH]c(-c4cc(OC)c5ncnn5c4)c(C(C)C)c3c2F)[C@H](C)C1 [Example 437] |  | 2.6 |  | 7670 | 6.4 |  | 
7 | COc1cc(-c2[nH]c3cnc(N4CCN(CCS(C)(=O)=O)CC4)c(Cl)c3c2C(C)C)cn2ncnc12 [Example 294] | 7630 | 3 | 4.7 |  |  |  | 
8 | COc1cc(-c2[nH]c3cnc(N4CCN(CC(C)C)C[C@H]4C)c(F)c3c2C(C)C)cn2ncnc12 [Example 453] |  | 16 |  |  |  | > 50000 | 34
9 | COc1cc(-c2[nH]c3cnc(C4CCC(N(CC#N)C5COC5)CC4)c(F)c3c2C(C)C)cn2ncnc12 (stereo not drawn) [Example 114] | 17400 | 4.8 | 6.6 |  |  |  | 
10 | COc1cc(-c2[nH]c3cnc(N4CC5(CN(CC6CCC6)C5)C4)c(F)c3c2C(C)C)cn2ncnc12 [Example 375] | 7210 | 17 | > 3120 |  |  |  | 
11 | Cc1c(-c2[nH]c3cnc(N4CCN(C(=O)CN(C)C)CC4)c(F)c3c2C(C)C)cn2ncnc2c1C [Example 422] | 6820 | 3.1 | 2 |  |  |  | 
12 | COc1cc(-c2[nH]c3cnc(N4CCC(NC(C)C)CC4)c(C)c3c2C(C)C)cn2ncnc12 [Example 202] | 2460 | 0.35 | 1.2 |  |  |  | 
13 | CNC(=O)CN1CCN(c2ncc3[nH]c(-c4cc(OC)c5ncnn5c4)c(C(C)C)c3c2F)CC1 [Example 359] | > 50000 | 2.5 | 2.7 |  |  |  | 
14 | Cc1cc(-c2[nH]c3cnc(C4CCC(NC5(C)COC5)CC4)c(F)c3c2C(C)C)cn2ncnc12 (stereo not drawn) [Example 81] | 2170 | 0.15 | 0.61 |  |  |  | 
15 | Cc1cc(-c2[nH]c3cnc(C4CCC(NCC(C)(C)C)CC4)c(F)c3c2C(C)C)cn2ncnc12 (stereo not drawn) [Example 48] | 9530 | 12 | 13 |  |  |  | 
16 | COc1cc(-c2[nH]c3cnc(N4CCN(CC(N)=O)CC4)c(F)c3c2C(C)C)cn2ncnc12 [Example 358] | > 50000 | 3.6 | 3.8 |  |  |  | 
17 | Cc1cc(-c2[nH]c3cnc(C4CCN(C(=O)CN(C)C)CC4)c(F)c3c2C(C)C)cn2ncnc12 [Example 65] | 3320 | 2.2 | 5.6 |  |  |  | 

Row | Compound | IC50 (human TLR9; [1]) [nM] | IC50 (human TLR7) [nM] | IC50 (human TLR8; [2]) [nM] | IC50 (human TLR9) [nM] | IC50 (human TLR8) [nM] | IC50 (human TLR9; [3]) [nM] | IC50 (human TLR8; [4]) [nM]
18 | Cc1c(-c2[nH]c3cnc(N4CCN(CC(=O)N(C)C)C[C@H]4C)c(F)c3c2C(C)C)cn2ncnc2c1C [Example 466] |  | 16 |  |  |  | 47500 | 2.5
19 | Cc1c(-c2[nH]c3cnc(N4CCC(NC(C)C)CC4)c(F)c3c2C(C)C)cn2ncnc2c1C [Example 166] | 3340 | 0.41 | 0.18 |  |  |  | 
20 | COc1cc(-c2[nH]c3cnc(N4CCNCC4)cc3c2C(C)C)cn2ncnc12 [Example 7, 6-(3-isopropyl-5-(piperazin-1-yl)-1H-pyrrolo[2,3-c]pyridin-2-yl)-8-methoxy-[1,2,4]triazolo [1,5-a]pyridine] | 168 | 1.5 | 0.56 |  |  |  | 
21 | COc1cc(-c2[nH]c3cnc(N4CCC(N(C)C(C)C)CC4)c(F)c3c2C(C)C)cn2ncnc12 [Example 101] | 4140 | 1.2 | 0.66 |  |  |  | 
22 | Cc1cc(-c2[nH]c3cnc(C4CCC(NC(C)C)CC4)c(F)c3c2C(C)C)cn2ncnc12 (stereo not drawn) [Example 198] | 1150 | 2.4 | 2.6 |  |  |  | 
23 | COc1cc(-c2[nH]c3cnc(N4CCN(C(=O)CN(C)C)C[C@H]4C)c(F)c3c2C(C)C)cn2ncnc12 [Example 439] | 11200 | 7.1 | 4.3 |  |  |  | 
24 | Cc1c(-c2[nH]c3cnc(C4CCNCC4)cc3c2C(C)C)cn2ncnc2c1C [Example 28] | 608 | 13 | 26 |  |  |  | 
25 | Cc1c(-c2[nH]c3cnc(N4CCN(CC(=O)N5CCOCC5)CC4)c(F)c3c2C(C)C)cn2ncnc2c1C [Example 423] | 42500 | 5.4 | 0.59 |  |  |  | 
26 | Cc1c(-c2[nH]c3cnc(N4CCN(C5CCOCC5)CC4)c(F)c3c2C(C)C)cn2ncnc2c1C [Example 431] | 8180 | 3.5 | 0.32 |  |  |  | 
27 | COc1cc(-c2[nH]c3cnc(N4CCN(C(=O)CN5CCOCC5)C[C@H]4C)c(F)c3c2C(C)C)cn2ncnc12 [Example 438] | > 50000 | 25 | 13 |  |  |  | 
28 | COc1cc(-c2[nH]c3cnc(C4CCN(CC(N)=O)CC4)c(C)c3c2C(C)C)cn2ncnc12 [Example 11] | 91 | 1.6 | 8.3 |  |  |  | 
29 | COc1cc(-c2[nH]c3cnc(C4CCC(NC5COC5)CC4)c(C)c3c2C(C)C)cn2ncnc12 (stereo not drawn) [Example 243] | 430 | 0.79 | 4.8 |  |  |  | 
30 | Cc1cc(-c2[nH]c3cnc(C4CCC(NC(C)C)CC4)c(F)c3c2C(C)C)cn2ncnc12 (stereo not drawn) [Example 230] |  | 0.41 |  |  |  | 1700 | 0.77
31 | Cc1c(-c2[nH]c3cnc(C4CCC(NC5COC5)CC4)cc3c2C(C)C)cn2ncnc2c1C (stereo not drawn) [Example 334] | 452 | 0.35 | 1.4 |  |  |  | 
32 | COc1cc(-c2[nH]c3cnc(N4CCN(CC5CCOCC5)CC4)c(F)c3c2C(C)C)cn2ncnc12 [Example 383] | 5390 | 2.7 | 0.31 |  |  |  | 
33 | CNC(=O)CN1CCC(c2cc3c(C(C)C)c(-c4cc(OC)c5ncnn5c4)[nH]c3cn2)CC1 [Example 292] | 303 | 7 | 47 |  |  |  | 

More lines, in order of falling IC50 (human TLR7), values ahead:

Row | IC50 (human TLR9; [1]) [nM] | IC50 (human TLR7) [nM] | IC50 (human TLR8; [2]) [nM] | IC50 (human TLR9) [nM] | IC50 (human TLR8) [nM] | IC50 (human TLR9; [3]) [nM] | IC50 (human TLR8; [4]) [nM] | Compound
34 | 17100 | 46 | 15 |  |  |  |  | Cc1c(-c2[nH]c3cnc(N4CC5(CN(CC6(C)COC6)C5)C4)c(F)c3c2C(C)C)cn2ncnc2c1C [Example 405]
35 | 1220 | 14 | 78 |  |  |  |  | Cc1c(-c2[nH]c3cnc(C4CCC(NC(C)C)CC4)cc3c2C(C)C)cn2ncnc2c1C (stereo not drawn) [Example 326]
36 | 5800 | 9.1 | 11 |  |  |  |  | COc1cc(-c2[nH]c3cnc(N4CCC(NCC5(C)COC5)CC4)c(F)c3c2C(C)C)cn2ncnc12 [Example 67]
37 | 5440 | 7.9 | 440 |  |  |  |  | COc1cc(-c2[nH]c3cnc(N4CC5(CN(CC(C)C)C5)C4)c(F)c3c2C(C)C)cn2ncnc12 [Example 372]
38 | 1030 | 3.2 | 21 |  |  |  |  | Cc1cc(-c2[nH]c3cnc(C4CCN(C5COC5)CC4)cc3c2C(C)C)cn2ncnc12 [Example 341]
39 | 29100 | 3.1 | 4.7 |  |  |  |  | CNC(=O)CN1CCN(c2ncc3[nH]c(-c4cc(OC)c5ncnn5c4)c(C(C)C)c3c2Cl)CC1 [Example 293]
40 | 2480 | 1.9 | 1.4 |  |  |  |  | Cc1cc(-c2[nH]c3cnc(C4CCN(CC(C)(C)O)CC4)c(F)c3c2C(C)C)cn2ncnc12 [Example 128]
41 | 505 | 1.5 | 2.2 |  |  |  |  | COc1cc(-c2[nH]c3cnc(N4CCN(C(=O)CN(C)C)CC4)c(Cl)c3c2C(C)C)cn2ncnc12 [Example 304]
42 | 15400 | 1.4 | 1.2 |  |  |  |  | Cc1cc(-c2[nH]c3cnc(N4CCC(N(C)C)CC4)c(F)c3c2C(C)C)cn2ncnc12 [Example 256]
43 | 2500 | 1.3 | 1.2 |  |  |  |  | Cc1c(N2CCC(N(C)CCC#N)CC2)ncc2[nH]c(-c3cc(C)c4ncnn4c3)c(C(C)C)c12 [Example 280]
44 | 768 | 1.1 | 4.4 |  |  |  |  | Cc1cc(-c2[nH]c3cnc(C4CCNCC4)c(F)c3c2C(C)C)cc(C)n1 [Example 151]
45 | 3000 | 1 | 0.48 |  |  |  |  | Cc1c(-c2[nH]c3cnc(N4CCC(N5CC6(COC6)C5)CC4)c(F)c3c2C(C)C)cn2ncnc2c1C [Example 111]
46 | 1210 | 0.83 | 2 |  |  |  |  | CCN(C)C1CCC(c2ncc3[nH]c(-c4cc(C)c5ncnn5c4)c(C(C)C)c3c2F)CC1 (stereo not drawn) [Example 199]
47 | 2770 | 0.74 | 0.58 |  |  |  |  | Cc1c(-c2[nH]c3cnc(N4CCC(N5CCC5)CC4)c(F)c3c2C(C)C)cn2ncnc2c1C [Example 51]
48 | 2770 | 0.63 | 0.36 |  |  |  |  | Cc1cc(-c2[nH]c3cnc(N4CCC(N5CC6(COC6)C5)CC4)c(F)c3c2C(C)C)cn2ncnc12 [Example 44]
49 | 905 | 0.4 | 0.62 |  |  |  |  | Cc1c(-c2[nH]c3cnc(C4CCC(N5CCC5)CC4)c(F)c3c2C(C)C)cn2ncnc2c1C (stereo not drawn) [Example 165]
50 | 4000 | 0.23 | 0.78 |  |  |  |  | Cc1cc(-c2[nH]c3cnc(N4CCC(N5CCC5)CC4)c(F)c3c2C(C)C)cn2ncnc12 [Example 70]
